{"source": "patent US10973822B2", "about": "“Combination therapy for treatment of hematological cancers and solid tumors” (Celgene Corporation, priority 2015, dated 2021)", "key": {"[1]": {"tested_on": "LPS-stimulated hPBMC and human whole blood", "experiment": "Cytokine modulation in LPS-stimulated hPBMC and human whole blood", "assay_type": "cell-based", "description": "TNF-α is an inflammatory cytokine produced by macrophages and monocytes during acute inflammation. TNF-α is responsible for a diverse range of signaling events within cells. TNF-α may play a pathological role in cancer. Without being limited by theory, one of the biological effects exerted by Compound A is the reduction of synthesis of TNF-α. Compound A enhances the degradation of TNF-α mRNA."}, "[2]": {"tested_on": "CD4+ and CD8+ T cells and autologous CLL tumor cells", "experiment": "Immunological synapse bioassay in CLL cells", "assay_type": "cell-based, human"}, "[3]": {"tested_on": "anti-CD3/CD28 stimulated PBMCs (NK, NKT, CD4+ and CD8+ T cell)", "experiment": "Lymphocyte proliferation assay", "assay_type": "cell-based, human", "conditions": "combination of Compound A with nivolumab, 6 days", "protocol": "To further explore immune activation resulting from the combination of Compound A and nivolumab, proliferation of immune cell subsets including NK, NKT, CD4+ and CD8+ T cell was examined. CellTrace Violet (Thermo Fisher) labeled PBMCs from healthy volunteers were treated with Compound A and nivolumab in combination or as single agent, and stimulated with soluble anti-CD3/CD28 (Stem Cell Technologies) for 6 days. Cells were collected and flow cytometry was performed to assay for surface expression of CD3, CD4, CD8, and CD56 (BD Biosciences). Dead cells were excluded by live/dead fixable stain (ThermoFisher Scientific). Prior to flow cytometry, CountBright beads (Thermo Fisher Scientific) were added to examine changes in absolute cell count."}, "[4]": {"tested_on": "murine liver cancer cell line (BNL-1MEA)", "experiment": "Orthotopic HCC (liver cancer) model", "assay_type": "in vivo, mice", "conditions": "Compound A in combination with anti-CTLA-4 antibody; 22 days of treatment; FIG. 1", "protocol": "The effects of Compound A in combination with checkpoint inhibitors were investigated in an orthotopic HCC model. The orthotopic HCC model was established by injecting about 2×10^5 murine liver cancer cell line (BNL-1MEA) cells into the sub-capsular area of the left liver lobe of male BALB/c or SCID mice at age of 6-7 weeks. Mice were randomized to different treatment groups on day 6 after tumor implantation. Tumor volumes were measured after 22 days of treatment with Compound A alone, the checkpoint inhibitor alone, and Compound A in combination with the checkpoint inhibitor by using the following formula: volume [mm^3]=[width]^2×length×0.5. Tumor tissues were cut into small pieces, followed by incubation with HBSS containing collagenase type I (0.05 mg/ml), collagenase type IV (0.05 mg/ml), hyaluronidase (0.025 mg/ml), DNase (0.01 mg/ml) and soybean trypsin inhibitor (1 mg/ml) (all from Sigma-Aldrich) for 15 minutes. TILs were recovered by using Ficoll-Paque gradient and subjected to lymphocyte subpopulations analysis by flow cytometry (FACScan Caliber, Becton Dickinson; data processed by using the […] Software, BD Biosciences Pharmingen). CD4+ T cells, CD8+ T cells, NK cells, or NKT cells were determined by double staining with specific antibodies recognizing murine CD3 (clone 145-2C11), CD4 (cone GK1.5), CD8 (clone 53-6.7), or Pan-NK (clone DX5)(BD Biosciences Pharmingen). […]"}, "[5]": {"tested_on": "CD4+ T cells co-cultured with monocyte-derived DC", "experiment": "Mixed lymphocyte reaction (MLR) assay", "assay_type": "cell-based, human", "conditions": "for IL-2 secretion compared to either single agent: 48 hours", "protocol": "In one exemplary study, monocytes were isolated from buffy coat using Easy Sep kit (StemCell Technologies) and cultured in RPMI supplemented with 10% FBS, IL-4, and GM-CSF for 7 days. On day 7, CD4+ T cells were isolated from leukopak using Easy Sep kit (StemCell Technologies) and co-cultured with Monocyte-derived DC (MDC) using a 10:1 ratio. Secreted IL-2 was quantified by ELISA at 48 hours and IFNγ was measured at 5 days. Throughout the experiment, surface marker expression was determined by flow cytometry. The results are shown in FIG. 3A (IL-2, 10 nM Compound A), FIG. 3B (IL-2, 100 nM Compound A), and FIG. 4A (IFNγ, 100 nM). Compound A in combination with nivolumab enhanced IL-2 and IFNγ secretion in the mixed lymphocyte reaction. In another exemplary study, monocytes were isolated from healthy donor buffy coat (Stem Cell Technologies) and cultured with 500 U/ml IL-4 and 250 U/ml GM-CSF (R&D Systems) for 7 days until the monocytes differentiated into dendritic cells (DC) by culturing with media containing a cocktail of IL-4 and GM-CSF for 7 days. On day 7, CD4^+ T cells from a different healthy donor were isolated from a leukopak (Stem Cell Technologies). The DC and T cells were mixed at a ratio of 1:10 and co-cultured for 5 days with Compound A and nivolumab (obtained from Blue Door Pharma) or anti-PD-L1 (anti-human CD274 (B7-H1) clone 29E.2A3, obtained from BioLegend, Cat #329716, lot B197650). Supernatants were harvested for IL-2 ELISA at 48 hours (R&D Systems) and for IFNγ ELISA at 5 days (Thermo Fisher Scientific). Monocytes, DC, T cells, and mixed lymphocytes were stained for flow cytometric analysis of CD14, HLA-DR, CD80, CD86, CD83, CD40, CD3, PD-1, PD-L1 surface expression markers throughout the duration of the experiment."}, "SEB-stimulated PBMC": {"tested_on": "SEB-stimulated PBMC", "experiment": "5 day SEB-stimulated PBMC assay (IL-2 ELISA)", "assay_type": "cell-based, human", "conditions": "for IL-2 secretion compared to either single agent: 5 days", "protocol": "In one exemplary study, PBMC cells were pretreated with Compound A for 1 hour, then SEB/CPI were added for 5 days, IL-2 elisa on day 5. The results are shown in FIG. 2A (Compound A in combination with nivolumab), FIG. 2B (Compound A in combination with a surrogate commercial anti-PD-1 antibody from BioLegend), and FIG. 2C (Compound A in combination with a surrogate commercial anti-PD-L1 antibody from BioLegend).\nIn another exemplary study, Compound A treated PBMCs from healthy donors were stimulated with 10 pg/ml of SEB (ThermoFisher Scientific) followed by addition of nivolumab (obtained from Blue Door Pharma), anti-PD1 (anti-human CD279 clone EH12.2H7, obtained from BioLegend, Cat #329926, lot B194623), and anti-PD-L1 (anti-human CD274 (B7-H1) clone 29E.2A3, obtained from BioLegend, Cat #329716, lot B197650) blocking antibodies. After 5 days of incubation, supernatants were collected and an ELISA for IL-2 (BD Biosciences) was utilized to examine secreted IL-2."}, "[6]": {"tested_on": "JHH4, a PD-L1 positive HCC cell line", "experiment": "PBMC mediated natural cytotoxicity against JHH4", "assay_type": "cell-based, human", "conditions": "p<0.05, FIG. 6"}, "[7]": {"tested_on": "acute myeloid leukemia (AML) at relapse", "conditions": "administered alone; cited from earlier work"}, "advanced melanoma": {"tested_on": "advanced melanoma", "conditions": "patients with advanced melanoma; Hodi et al. 2010; cited from earlier work"}, "[8]": {"tested_on": "DLBCL, FL and T-cell lymphomas", "conditions": "monotherapy; cited from earlier work"}, "[9]": {"conditions": "Compound A 0.01-1 μM for 24 h, compared to vehicle treated cells, P<0.01"}, "[10]": {"conditions": "synapse with PD-L1+ tumor cells"}}, "data": [{"compound": "Cc1nc2cccc(N)c2c(=O)n1C1CCC(=O)NC1=O", "note": "(centres unmarked) [Compound A, 3-(5-amino-2-methyl-4-oxo-4H-quinazolin-3-yl)-piperidine-2,6-dione]", "values": [{"measurement": "IL-1β inhibition", "setting": "[1]", "result": "potently inhibits"}, {"measurement": "IL-10 stimulation", "setting": "[1]", "result": "stimulates"}, {"measurement": "TNF-α inhibition", "setting": "[1]", "result": "markedly inhibits"}, {"measurement": "formation of F-actin immune synapses (area size)", "setting": "[2]; [9]", "result": "increased"}, {"measurement": "number of T cells recognizing tumor cells (% conjugation formation)", "setting": "[2]; [9]", "result": "dramatically enhanced"}, {"measurement": "T cell synapse activity compared to immunotherapy alone", "setting": "[2]; Compound A with anti-CTLA-4 blocking antibody, FIG. 7A", "result": "increased T cell synapse activity"}, {"measurement": "T cell synapse activity compared to immunotherapy alone", "setting": "[2]; Compound A with anti-PD-1 blocking antibody, FIG. 7B", "result": "increased T cell synapse activity"}, {"measurement": "T cell synapse activity compared to immunotherapy alone", "setting": "[2]; Compound A with anti-PD-L1 blocking antibody, FIG. 7C", "result": "increased T cell synapse activity"}, {"measurement": "synapse strength (total fluorescence intensity of F-actin per T cell:APC conjugate)", "setting": "[2]; P<0.01", "result": "increased significantly"}, {"measurement": "recruitment of inducible co-stimulator (ICOS) to the synapse", "setting": "[2]; dose-dependent, P<0.01", "result": "increased recruitment"}, {"measurement": "polarized expression of CTLA-4 at the synapse", "setting": "[2]; [10]", "result": "increased polarized expression"}, {"measurement": "polarized expression of PD-1 at the synapse", "setting": "[2]; [10]", "result": "increased polarized expression"}, {"measurement": "proliferation in NK cells (absolute cell numbers)", "setting": "[3]; FIG. 5A", "result": "enhanced proliferation"}, {"measurement": "proliferation in NKT cells (absolute cell numbers)", "setting": "[3]; FIG. 5B", "result": "enhanced proliferation"}, {"measurement": "proliferation in CD4+ T-cells (absolute cell numbers)", "setting": "[3]; FIG. 5C", "result": "but not CD4+ T-cells"}, {"measurement": "proliferation in CD8+ T-cells (absolute cell numbers)", "setting": "[3]; FIG. 5D", "result": "enhanced proliferation"}, {"measurement": "anti-tumor efficacy in term of tumor volume", "setting": "[4]", "result": "significant synergistic anti-tumor efficacy"}, {"measurement": "IL-2 secretion", "setting": "[5]; Compound A (10 nM, 100 nM) in combination with nivolumab, ELISA at 48 hours, FIG. 3A, 3B", "result": "enhanced"}, {"measurement": "IFNγ secretion", "setting": "[5]; Compound A (100 nM) in combination with nivolumab, 5 days, FIG. 4A", "result": "enhanced"}, {"measurement": "IL-2 secretion compared to either single agent", "setting": "[5]; Compound A with anti-PD-L1, synergy at 1-10 μg/ml anti-PD-L1, FIG. 3D", "result": "synergistic IL-2 secretion"}, {"measurement": "IFNγ secretion", "setting": "[5]; Compound A with anti-PD-L1 between 0.1-10 μg/ml, 5 days of co-culture, FIG. 4C", "result": "increased synergistically"}, {"measurement": "IFNγ secretion", "setting": "[5]; Compound A with nivolumab between 0.1-10 μg/ml, 5 days of co-culture, FIG. 4B", "result": "increased synergistically"}, {"measurement": "IL-2 secretion compared to either single agent", "setting": "[5]; Compound A with nivolumab, synergy between 0.01-10 μg/ml nivolumab, FIG. 3C", "result": "synergistic IL-2 secretion"}, {"measurement": "IL-2 secretion compared to either single agent", "setting": "SEB-stimulated PBMC; 40 nM Compound A with anti-PD-1 blocking antibody, synergy above 1 μg/ml anti-PD-1, FIG. 2E", "result": "synergistic IL-2 secretion"}, {"measurement": "IL-2 secretion compared to either single agent", "setting": "SEB-stimulated PBMC; 40 nM Compound A with anti-PD-L1 blocking antibody, synergy above 10 μg/ml anti-PD-L1, FIG. 2F", "result": "synergistic IL-2 secretion"}, {"measurement": "IL-2 secretion compared to either single agent", "setting": "SEB-stimulated PBMC; 40 nM Compound A with nivolumab, synergy between 0.1-100 μg/ml nivolumab, FIG. 2D", "result": "synergistic IL-2 secretion"}, {"measurement": "IL-2 secretion", "setting": "SEB-stimulated PBMC; Compound A pretreatment 1 hour, then SEB/CPI (nivolumab, anti-PD-1 or anti-PD-L1) for 5 days, FIG. 2A-2C", "result": "synergistically enhanced IL-2 secretion"}, {"measurement": "PBMC-mediated cell killing of HCC cell line JHH4", "setting": "[6]; 50 nM Compound A combined with 1 μg/ml anti-PD-L1", "result": "significantly enhanced"}, {"measurement": "PBMC-mediated cell killing of HCC cell line JHH4", "setting": "[6]; 50 nM Compound A combined with 1-10 μg/ml nivolumab", "result": "significantly enhanced"}]}, {"compound": "CT-011: anti-PD-1 antibody, a humanized antibody", "values": [{"measurement": "response in treating AML at relapse", "setting": "[7]", "result": "failed to show response"}]}, {"compound": "ipilimumab: fully human monoclonal IgG antibody that binds to CTLA-4", "values": [{"measurement": "overall survival", "setting": "advanced melanoma", "result": "overall survival benefit"}]}, {"compound": "nivolumab: human IgG4 anti-PD-1 monoclonal antibody", "values": [{"measurement": "antitumor activity", "setting": "[8]", "result": "has shown antitumor activity"}]}]}
